Our source for the zone of inhibition and Activity values is ChEMBL document CHEMBL1146429, “Stellettamide B, a new indolizidine alkaloid from a sponge of the genus Stelletta” (1997).

Active and inactive are the calls of the source. The calls are words filed in the database; no cut-off is given here.

The test system of one test is Candida albicans. Description: Antimicrobial activity against Candida albicans at 25 ug/mL by paper-disk method. It counts as functional. As to conditions: read-out: IZ.
The nature of test [1]: Induction of cleavage of rRNA at 50 ug/mL.
Test [2] is described as follows: Induction of cleavage of mRNA at 50 ug/mL.

Take `CC(C)=CCC[C@@H](C)/C=C/C=C(\C)C(=O)NC(=N)NCCCCNC(=N)N` [STELLETTADINE A]: the zone of inhibition at 25 µg/mL in the test on Candida albicans was 9 mm. The result in test [1] and in test [2] was Active.

Take `CC(C)=CCC[C@@H](C)/C=C/C=C(\C)C(=O)NC[C@@H]1CC[N+]2(C)CCCC[C@H]12` (stereo partly specified) [STELLETTAMIDE B]: in the test with Candida albicans, the zone of inhibition at 25 µg/mL was 4 mm. In addition, the result in test [1] and in test [2] was Active.
